This assay has as its target hATX/ENPP2 (Homo sapiens, UniProt Q13822). Kind of assay: hATX/ENPP2 biochemical assay using 16:0-LPC as substrate (Amplex Red/choline oxidase/HRP fluorescence). The conditions noted are these: hENPP2 2.5 nM, LPC (16:0) substrate. As to the method: The enzyme is diluted in 50 mM Tris-HCl pH 8.0, 140 mM NaCl, 5 mM CaCl2, 0.01% Triton X-100 in a total volume of 5 μL. The aqueous solution of enzyme is added to the wells and incubated with different concentrations of the compounds at room temperature for 15 min. The reaction is started by the addition of 5 μL of 80 μM LPC (16:0) and 10 μL of the detection mixture containing 200 μM Amplex Red, 10 U/mL choline oxidase and 4 U/mL HRP. Fluorescence at 590 nm was measured kinetically with excitation at 530 nm. The slope of the curve (from 60 to 70 min of the reaction time) was used to calculate the compounds' IC50 values.

Molecules are shown by their SMILES. Some results are limits rather than exact numbers.

`CCc1nc2ccc(-c3cnc(N4CCC(NC(=O)C5(C#N)CC5)CC4)nc3)cn2c1N(C)c1nc(-c2ccc(F)cc2)c(C#N)s1` [Compound 20, 1-cyano-N-(1-(5-(3-((5-cyano-4-(4-fluorophenyl)thiazol-2-yl)(methyl)amino)-2-ethylimidazo[1,2-a]pyridin-6-yl)pyrimidin-2-yl)piperidin-4-yl) cyclopropane-1-carboxamide] registered a concentration for half-maximal inhibition (IC50) of 20 to 200 nM.

`CCc1nc2ccc(-c3cnc(NC4CCN(C(=O)C5(O)CC5)CC4)nc3)cn2c1N(C)c1nc(-c2ccc(F)cc2)c(C#N)s1` [Compound 21, 2-((2-ethyl-6-(2-((1-(1-hydroxycyclopropane-1-carbonyl)piperidin-4-yl)amino)pyrimidin-5-yl)imidazo[1,2-a]pyridin-3-yl)(methyl)amino)-4-(4-fluorophenyl) thiazole-5-carbonitrile] returned an IC50 of 20 to 200 nM.

The compound `CCc1nc2ccc(-c3cnc(NC4CCNCC4)nc3)cn2c1N(C)c1nc(-c2ccc(F)cc2)c(C#N)s1` [Compound 22, 2-((2-ethyl-6-(2-(piperidin-4-ylamino)pyrimidin-5-yl)imidazo[1,2-a]pyridin-3-yl)(methyl)amino)-4-(4-fluorophenyl)thiazole-5-carbonitrile] gave a 50% inhibitory concentration (IC50) of over 200 nM.

`CCc1nc2ccc(-c3cnc(N4CC(NC(=O)[C@H]5C[C@H](O)CN5)C4)nc3)cn2c1N(C)c1nc(-c2ccc(F)cc2)c(C#N)s1` [Compound 23, (2R,4S)—N-(1-(5-(3-((5-cyano-4-(4-fluorophenyl)thiazol-2-yl)(methyl)amino)-2-ethylimidazo[1,2-a]pyridin-6-yl)pyrimidin-2-yl)azetidin-3-yl)-4-hydroxypyrrolidine-2-carboxamide] displayed an IC50 of 20 to 200 nM.

With `CCc1nc2ccc(-c3cnc(N4CC(NC(=O)[C@@H]5C[C@H](O)CN5)C4)nc3)cn2c1N(C)c1nc(-c2ccc(F)cc2)c(C#N)s1` [Compound 24, (2S,4S)—N-(1-(5-(3-((5-cyano-4-(4-fluorophenyl)thiazol-2-yl)(methyl)amino)-2-ethylimidazo[1,2-a]pyridin-6-yl)pyrimidin-2-yl)azetidin-3-yl)-4-hydroxy pyrrolidine-2-carboxamide], the concentration for half-maximal inhibition (IC50) fell in the range of 20 to 200 nM.

On to `CCc1nc2ccc(-c3cnc(N4CC(NC(=O)[C@H]5C[C@@H](O)CN5)C4)nc3)cn2c1N(C)c1nc(-c2ccc(F)cc2)c(C#N)s1` [Compound 25, (2R,4R)—N-(1-(5-(3-((5-cyano-4-(4-fluorophenyl)thiazol-2-yl)(methyl)amino)-2-ethylimidazo[1,2-a]pyridin-6-yl)pyrimidin-2-yl)azetidin-3-yl)-4-hydroxypyrrolidine-2-carboxamide], for which the IC50 was 20 to 200 nM.

In the case of `CCc1nc2ccc(-c3cnc(N4CC(NC(=O)[C@@H]5C[C@@H](O)CN5)C4)nc3)cn2c1N(C)c1nc(-c2ccc(F)cc2)c(C#N)s1` [Compound 26, (2S,4R)—N-(1-(5-(3-((5-cyano-4-(4-fluorophenyl)thiazol-2-yl)(methyl)amino)-2-ethylimidazo[1,2-a]pyridin-6-yl)pyrimidin-2-yl)azetidin-3-yl)-4-hydroxypyrrolidine-2-carboxamide], the half-inhibitory concentration (IC50) lay within 20 to 200 nM.

`CCc1nc2ccc(-c3cnc(N4CC(NC5CNC5)C4)nc3)cn2c1N(C)c1nc(-c2ccc(F)cc2)c(C#N)s1` [Compound 27, 2-((6-(2-(3-(azetidin-3-ylamino)azetidin-1-yl)pyrimidin-5-yl)-2-ethylimidazo[1,2-a]pyridin-3-yl)(methyl)amino)-4-(4-fluorophenyl)thiazole-5-carbonitrile] showed a half-maximal inhibitory concentration (IC50) of 20 to 200 nM.

Regarding `CCc1nc2ccc(-c3cnc(N4CC(NC5(C#N)CC5)C4)nc3)cn2c1N(C)c1nc(-c2ccc(F)cc2)c(C#N)s1` [Compound 28, 2-((6-(2-(3-((1-cyanocyclopropyl)amino)azetidin-1-yl)pyrimidin-5-yl)-2-ethylimidazo[1,2-a]pyridin-3-yl)(methyl)amino)-4-(4-fluorophenyl)thiazole-5-carbonitrile], the IC50 is 20 to 200 nM.

`CCc1nc2ccc(-c3cnc(N4CC(NC(=O)C5(C#N)CC5)C4)nc3)cn2c1N(C)c1nc(-c2ccc(F)cc2)c(C#N)s1` [Compound 29, 1-cyano-N-(1-(5-(3-((5-cyano-4-(4-fluorophenyl)thiazol-2-yl)(methyl)amino)-2-ethylimidazo[1,2-a]pyridin-6-yl)pyrimidin-2-yl)azetidin-3-yl)cyclopropane-1-carboxamide] gave a half-inhibitory concentration (IC50) of 20 to 200 nM.

For `CCc1nc2ccc(-c3cnc(N4CC(NC(=O)C5(O)CC5)C4)nc3)cn2c1N(C)c1nc(-c2ccc(F)cc2)c(C#N)s1` [Compound 31, N-(1-(5-(3-((5-cyano-4-(4-fluorophenyl)thiazol-2-yl)(methyl)amino)-2-ethylimidazo[1,2-a]pyridin-6-yl)pyrimidin-2-yl)azetidin-3-yl)-1-hydroxycyclopropane-1-carboxamide], the half-inhibitory concentration (IC50) fell in the range of 20 to 200 nM.

In the case of `CCc1nc2ccc(-c3cnc(N4CC(C(=O)NC5(C#N)CC5)C4)nc3)cn2c1N(C)c1nc(-c2ccc(F)cc2)c(C#N)s1` [Compound 32, 1-(5-(3-((5-cyano-4-(4-fluorophenyl)thiazol-2-yl)(methyl)amino)-2-ethylimidazo[1,2-a]pyridin-6-yl)pyrimidin-2-yl)-N-(1-cyanocyclopropyl)azetidine-3-carboxamide], the IC50 is at most 20 nM.

For `CCc1nc2ccc(-c3cnc(N4CC(C(=O)NC5(CO)CC5)C4)nc3)cn2c1N(C)c1nc(-c2ccc(F)cc2)c(C#N)s1` [Compound 33, 1-(5-(3-((5-cyano-4-(4-fluorophenyl)thiazol-2-yl)(methyl)amino)-2-ethylimidazo[1,2-a]pyridin-6-yl)pyrimidin-2-yl)-N-(1-(hydroxylmethyl)cyclopropyl)azetidine-3-carboxamide], the IC50 is at most 20 nM.

Consider `CCc1nc2ccc(-c3cnc(NC4CNC4)nc3)cn2c1N(C)c1nc(-c2ccc(F)cc2)c(C#N)s1` [Compound 34, 2-((6-(2-(azetidin-3-ylamino)pyrimidin-5-yl)-2-ethylimidazo[1,2-a]pyridin-3-yl)(methyl)amino)-4-(4-fluorophenyl)thiazole-5-carbonitrile], for which the half-inhibitory concentration (IC50) is over 200 nM.

Regarding `CCc1nc2ccc(-c3cnc(NC4CN(C(=O)C5(O)CC5)C4)nc3)cn2c1N(C)c1nc(-c2ccc(F)cc2)c(C#N)s1` [Compound 35, 2-((2-ethyl-6-(2-((1-(1-hydroxycyclopropane-1-carbonyl)azetidin-3-yl)amino)pyrimidin-5-yl)imidazo[1,2-a]pyridin-3-yl) (methyl)amino)-4-(4-fluorophenyl)thiazole-5-carbonitrile], the 50% inhibitory concentration (IC50) was in the range of 20 to 200 nM.

`CCc1nc2ccc(-c3cnc(NC4CN(C(=O)C5CNC5)C4)nc3)cn2c1N(C)c1nc(-c2ccc(F)cc2)c(C#N)s1` [Compound 36, 2-((6-(2-((1-(azetidine-3-carbonyl)azetidin-3-yl)amino)pyrimidin-5-yl)-2-ethylimidazo[1,2-a]pyridin-3-yl)(methyl)amino)-4-(4-fluorophenyl) thiazole-5-carbonitrile] showed a concentration for half-maximal inhibition (IC50) of 20 to 200 nM.

`CCc1nc2ccc(-c3cnc(NC4CN(C(=O)N5CC(O)C5)C4)nc3)cn2c1N(C)c1nc(-c2ccc(F)cc2)c(C#N)s1` [Compound 37, 2-((2-ethyl-6-(2-((1-(3-hydroxyazetidine-1-carbonyl)azetidin-3-yl)amino)pyrimidin-5-yl)imidazo[1,2-a]pyridin-3-yl)(methyl)amino)-4-(4-fluorophenyl)thiazole-5-carbonitrile] displayed an IC50 of 20 to 200 nM.

`CCc1nc2ccc(-c3cnc(NCC4CN(C(=O)N5CC(O)C5)C4)nc3)cn2c1N(C)c1nc(-c2ccc(F)cc2)c(C#N)s1` [Compound 39, 2-((2-ethyl-6-(2-(((1-(3-hydroxyazetidine-1-carbonyl)azetidin-3-yl)methyl)amino)pyrimidin-5-yl)imidazo[1,2-a]pyridin-3-yl)(methyl)amino)-4-(4-fluorophenyl)thiazole-5-carbonitrile] had a concentration for half-maximal inhibition (IC50) of 20 to 200 nM.

Consider `CCc1nc2ccc(-c3cnc(NCC4CN(C(=O)C5CNC5)C4)nc3)cn2c1N(C)c1nc(-c2ccc(F)cc2)c(C#N)s1` [Compound 40, 2-((6-(2-(((1-(azetidine-3-carbonyl)azetidin-3-yl)methyl)amino)pyrimidin-5-yl)-2-ethylimidazo[1,2-a]pyridin-3-yl)(methyl)amino)-4-(4-fluorophenyl)thiazole-5-carbonitrile], for which the IC50 is over 200 nM.

In turn, `CCc1nc2ccc(-c3cnc(NCC4CN(C(=O)C5(O)CC5)C4)nc3)cn2c1N(C)c1nc(-c2ccc(F)cc2)c(C#N)s1` [Compound 41, 2-((2-ethyl-6-(2-(((1-(1-hydroxycyclopropane-1-carbonyl)azetidin-3-yl)methyl)amino)pyrimidin-5-yl)imidazo[1,2-a]pyridin-3-yl)(methyl)amino)-4-(4-fluorophenyl)thiazole-5-carbonitrile] registered an IC50 of 20 to 200 nM.

Compound `CCc1nc2ccc(-c3cnc(N4CCN(CC(=O)N5CC[C@@H](O)C5)CC4)nc3)cn2c1N(C)c1nc(-c2ccc(F)cc2)c(C#N)s1` [Compound 45, (R)-2-((2-ethyl-6-(2-(4-(2-(3-hydroxypyrrolidin-1-yl)-2-oxoethyl)piperazin-1-yl)pyrimidin-5-yl)imidazo[1,2-a]pyridin-3-yl)(methyl)amino)-4-(4-fluorophenyl)thiazole-5-carbonitrile] returned a half-maximal inhibitory concentration (IC50) of at most 20 nM.

`CCc1nc2ccc(-c3cnc(N4CCN(CC(=O)N5CC[C@H](O)C5)CC4)nc3)cn2c1N(C)c1nc(-c2ccc(F)cc2)c(C#N)s1` [Compound 46, (S)-2-((2-ethyl-6-(2-(4-(2-(3-hydroxypyrrolidin-1-yl)-2-oxoethyl)piperazin-1-yl)pyrimidin-5-yl)imidazo[1,2-a]pyridin-3-yl)(methyl)amino)-4-(4-fluorophenyl)thiazole-5-carbonitrile] had an IC50 of at most 20 nM.

The values are drawn from patent US11970493B2, “Autotaxin inhibitor compounds” (ILDONG PHARMACEUTICAL CO., LTD., priority 2020, dated 2024).
